Read-outs that look alike come from different tables or passages of the source.
Columns and labels:
[1] = tested on: hepatitis C replicon; test: hepatitis C replicon EC50 assay; type: cell-based; settings: Hepatitis C virus
Outline: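 Buffer: 50 mM Tris-HCl pH 7.5, 15% glycerol, 0.6 mM LDAO, 25 μM NS4A peptide, 10 mM DTT, at 23° C. (ambient). EC50 follows a referenced published replicon protocol.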

[2] = target: NS3/NS4 complexes (Hepatitis C virus genotype 1a, UniProt P27958); test: NS3/NS4 inhibition assay (IC50); type: biochemical; settings: NS3/NS4 activity; 23° C., 25 μM NS4A peptide
Outline: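 Read-outs are IC50 for inhibition of the NS3/NS4 complex and EC50 in an HCV replicon system. Biochemical runs use 23° C. and a 50 mM Tris-HCl (pH 7.5) buffer with 15% glycerol, 10 mM DTT, 0.6 mM LDAO and 25 μM NS4A peptide.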

[3] = hepatitis C replicon, read-out: EC50

Sequence of NS3/NS4 complexes (P27958 1027-1657, one chain of several): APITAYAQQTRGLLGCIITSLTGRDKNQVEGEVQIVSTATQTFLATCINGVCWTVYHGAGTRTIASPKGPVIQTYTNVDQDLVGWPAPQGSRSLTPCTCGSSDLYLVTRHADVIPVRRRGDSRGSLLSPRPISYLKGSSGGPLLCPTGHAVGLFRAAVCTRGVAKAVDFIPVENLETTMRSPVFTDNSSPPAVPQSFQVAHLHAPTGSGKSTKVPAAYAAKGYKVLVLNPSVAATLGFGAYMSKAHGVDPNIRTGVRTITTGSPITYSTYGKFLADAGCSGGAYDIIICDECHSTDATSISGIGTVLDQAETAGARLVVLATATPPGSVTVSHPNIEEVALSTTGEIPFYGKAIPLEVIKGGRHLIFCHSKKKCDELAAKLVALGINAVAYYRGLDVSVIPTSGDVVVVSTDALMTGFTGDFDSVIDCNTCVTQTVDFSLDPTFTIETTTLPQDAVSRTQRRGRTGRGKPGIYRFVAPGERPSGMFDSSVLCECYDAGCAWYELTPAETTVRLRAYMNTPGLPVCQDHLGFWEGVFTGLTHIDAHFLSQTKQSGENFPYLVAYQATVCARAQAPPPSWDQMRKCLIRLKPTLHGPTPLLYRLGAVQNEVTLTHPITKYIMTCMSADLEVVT

| SMILES | EC50 [1, 3] [nM] | IC50 [2] [nM] | EC50 [1] [nM] |
| --- | --- | --- | --- |
| CC1(S(=O)(=O)NC(=O)[C@@]23C[C@H]2/C=C\CCCCC[C@H](Nc2ccccc2)C(=O)N2C[C@H](n4ncc(-c5ccccc5)n4)C[C@H]2C(=O)N3)CC1 [Compound 1503] | > 100 | < 10 | – |
| CC(C)n1c(O[C@@H]2C[C@H]3C(=O)N[C@]4(C(=O)NS(=O)(=O)C5CC5)C[C@H]4/C=C\CCCCC[C@H](NC(=O)OC(C)(C)C)C(=O)N3C2)nc2c(-c3nc(C(C)(C)C)cs3)cccc21 [Compound 220] | < 10 | < 10 | – |
| CC(C)n1c(O[C@@H]2C[C@H]3C(=O)N[C@]4(C(=O)NS(=O)(=O)C5(C)CC5)C[C@H]4/C=C\CCCCC[C@H](NC(=O)OC(C)(C)C)C(=O)N3C2)nc2ncccc21 [Compound 1779] | 10 to 100 | < 10 | – |
| COc1ccc2c(O[C@@H]3C[C@H]4C(=O)N[C@]5(C(=O)NS(=O)(=O)C6(C)CC6)C[C@H]5/C=C\CCCCC[C@H](Nc5cccc(C(=O)N6CC(C)OC(C)C6)c5)C(=O)N4C3)cc(-c3nc(C(C)C)cs3)nc2c1C (stereo partly drawn) [Compound 106] | < 10 | < 10 | – |
| CC(C)n1c(O[C@@H]2C[C@H]3C(=O)N[C@]4(C(=O)NS(=O)(=O)C5(C)CC5)C[C@H]4/C=C\CCCCC[C@H](NC(=O)OC4CCCC4)C(=O)N3C2)nc2c(-c3nc(-c4ccccc4)cs3)cccc21 [Compound 1730] | < 10 | < 10 | – |
| CN(C)S(=O)(=O)NC(=O)[C@@]12C[C@H]1/C=C\CCCCC[C@H](NC(=O)OC(C)(C)C)C(=O)N1C[C@H](Oc3nc4ccccc4n3C3CC3)C[C@H]1C(=O)N2 [Compound 205] | < 10 | < 10 | – |
| CC(C)n1c(O[C@@H]2C[C@H]3C(=O)N[C@]4(C(=O)NS(=O)(=O)N(C)C)C[C@H]4/C=C\CCCCC[C@H](NC(=O)OC(C)(C)C)C(=O)N3C2)nc2c(C(=O)O)cccc21 [Compound 276] | > 100 | < 10 | – |
| CC(C)c1nc2ccccc2nc1O[C@@H]1C[C@H]2C(=O)N[C@]3(C(=O)NS(=O)(=O)N(C)C)C[C@H]3/C=C\CCCCC[C@H](NC(=O)OC(C)(C)C)C(=O)N2C1 [Compound 305] | < 10 | < 10 | – |
| CC(C)n1c(O[C@@H]2C[C@H]3C(=O)N[C@]4(C(=O)NS(=O)(=O)C5(C)CC5)C[C@H]4/C=C\CCCCC[C@H](Nc4ccccc4)C(=O)N3C2)nc2c(C(=O)NCCc3ccccc3)cccc21 [Compound 275] | 10 to 100 | < 10 | – |
| CC(C)Cc1nc2ccccc2nc1O[C@@H]1C[C@H]2C(=O)N[C@]3(C(=O)NS(=O)(=O)N(C)C)C[C@H]3/C=C\CCCCC[C@H](NC(=O)OC(C)(C)C)C(=O)N2C1 [Compound 307] | 10 to 100 | < 10 | – |
| CC(C)c1ccc2c(c1)nc(O[C@@H]1C[C@H]3C(=O)N[C@]4(C(=O)NS(=O)(=O)N(C)C)C[C@H]4/C=C\CCCCC[C@H](NC(=O)OC(C)(C)C)C(=O)N3C1)n2C(C)C [Compound 289] | 10 to 100 | < 10 | – |
| CC1(S(=O)(=O)NC(=O)[C@@]23C[C@H]2/C=C\CCCCC[C@H](Nc2ccccc2)C(=O)N2C[C@H](n4nnc5ccccc54)C[C@H]2C(=O)N3)CC1 [Compound 1502] | > 100 | < 10 | – |
| CC(C)n1c(O[C@@H]2C[C@H]3C(=O)N[C@]4(C(=O)NS(=O)(=O)C5(C)CC5)C[C@H]4/C=C\CCCCC[C@H](Nc4ccccc4)C(=O)N3C2)nc2c(-c3cccc(OC(F)(F)F)c3)cccc21 [Compound 247] | > 100 | < 10 | – |
| CC(C)n1c(O[C@@H]2C[C@H]3C(=O)N[C@]4(C(=O)NS(=O)(=O)N(C)C)C[C@H]4/C=C\CCCCC[C@H](NC(=O)OC(C)(C)C)C(=O)N3C2)nc2c(-c3csc(N4CCOCC4)n3)cccc21 [Compound 1741] | < 10 | < 10 | – |
| CC(C)n1c(O[C@@H]2C[C@H]3C(=O)N[C@]4(C(=O)NS(=O)(=O)C5CC5)C[C@H]4/C=C\CCCCC[C@H](NC(=O)OC(C)(C)C)C(=O)N3C2)nc2c(-c3nc(C4CCCC4)cs3)cccc21 [Compound 1434] | < 10 | < 10 | – |
| CC(C)c1nc(-c2cccc3c2nc(O[C@@H]2C[C@H]4C(=O)N[C@]5(C(=O)NS(=O)(=O)N(C)C)C[C@H]5/C=C\CCCCC[C@H](NC(=O)OC(C)(C)C)C(=O)N4C2)n3C(C)C)oc1C(C)C [Compound 1211] | < 10 | < 10 | – |
| CC(C)n1c(O[C@@H]2C[C@H]3C(=O)N[C@]4(C(=O)NS(=O)(=O)C5(C)CC5)C[C@H]4/C=C\CCCCC[C@H](Nc4ccccc4)C(=O)N3C2)nc2c(-c3ccc(OC(F)(F)F)cc3)cccc21 [Compound 249] | > 100 | < 10 | – |
| Cc1ccc(-c2csc(-c3cccc4c3nc(O[C@@H]3C[C@H]5C(=O)N[C@]6(C(=O)NS(=O)(=O)N(C)C)C[C@H]6/C=C\CCCCC[C@H](NC(=O)OC(C)(C)C)C(=O)N5C3)n4C(C)C)n2)cc1 [Compound 1746] | 10 to 100 | < 10 | – |

| SMILES | EC50 [1, 3] [nM] | IC50 [2] [nM] | EC50 [1] [nM] |
| --- | --- | --- | --- |
| Cn1cnc2ccc(O[C@@H]3C[C@H]4C(=O)N[C@]5(C(=O)NS(=O)(=O)C6(C)CC6)C[C@H]5/C=C\CCCCC[C@H](NC(=O)OC(C)(C)C)C(=O)N4C3)cc21 [Compound 296] | > 100 | < 10 | – |
| CC(C)n1c(O[C@@H]2C[C@H]3C(=O)N[C@]4(C(=O)NS(=O)(=O)N(C)C)C[C@H]4/C=C\CCCCC[C@H](NC(=O)OC(C)(C)C)C(=O)N3C2)nc2c(-c3csc(-c4ccccc4)n3)cccc21 [Compound 1740] | 10 to 100 | < 10 | – |
| CC(C)n1c(O[C@@H]2C[C@H]3C(=O)N[C@]4(C(=O)NS(=O)(=O)C5(C)CC5)C[C@H]4/C=C\CCCCC[C@H](NC(=O)OC(C)(C)C)C(=O)N3C2)nc2c(-c3nc(Cc4ccc(F)c(F)c4)cs3)cccc21 [Compound 1721] | < 10 | < 10 | – |
| CC(C)n1c(O[C@@H]2C[C@H]3C(=O)N[C@]4(C(=O)NS(=O)(=O)C5CC5)C[C@H]4/C=C\CCCCC[C@H](NC(=O)OC(C)(C)C)C(=O)N3C2)nc2c(Br)cccc21 [Compound 224] | < 10 | < 10 | – |
| CC(C)c1ccn(-c2cccc3c2nc(O[C@@H]2C[C@H]4C(=O)N[C@]5(C(=O)NS(=O)(=O)C6(C)CC6)C[C@H]5/C=C\CCCCC[C@H](NC(=O)OC(C)(C)C)C(=O)N4C2)n3C(C)C)n1 [Compound 1404] | < 10 | < 10 | – |
| CCOC(=O)N1CCN(C(=O)c2cccc(N[C@H]3CCCCC/C=C\[C@@H]4C[C@@]4(C(=O)NS(=O)(=O)C4(C)CC4)NC(=O)[C@@H]4C[C@@H](Oc5cc(-c6nc(C(C)C)cs6)nc6c(C)c(OC)ccc56)CN4C3=O)c2)CC1 [Compound 108] | < 10 | < 10 | – |
| Cc1sc(-c2cccc3c2nc(O[C@@H]2C[C@H]4C(=O)N[C@]5(C(=O)NS(=O)(=O)C6(C)CC6)C[C@H]5/C=C\CCCCC[C@H](NC(=O)OC(C)(C)C)C(=O)N4C2)n3C(C)C)nc1Cc1ccccc1 [Compound 1217] | < 10 | < 10 | – |
| CC(C)n1c(O[C@@H]2C[C@H]3C(=O)N[C@]4(C(=O)NS(=O)(=O)C5(C)CC5)C[C@H]4/C=C\CCCCC[C@H](NC(=O)OC(C)(C)C)C(=O)N3C2)nc2c(-c3nc(C4CC4)cs3)cccc21 [Compound 1777] | < 10 | < 10 | – |
| CC(C)c1csc(-c2cccc3c2nc(O[C@@H]2C[C@H]4C(=O)N[C@]5(C(=O)NS(=O)(=O)C6(C)CC6)C[C@H]5/C=C\CCCCC[C@H](NC(=O)OC(C)(C)C)C(=O)N4C2)n3C(C)C)n1 [Compound 1403] | < 10 | < 10 | – |
| CC(C)n1c(O[C@@H]2C[C@H]3C(=O)N[C@]4(C(=O)NS(=O)(=O)N(C)C)C[C@H]4/C=C\CCCCC[C@H](NC(=O)OC(C)(C)C)C(=O)N3C2)nc2c(-c3nc(CC4CCCCC4)cs3)cccc21 [Compound 1772] | 10 to 100 | < 10 | – |
| CC(C)n1c(O[C@@H]2C[C@H]3C(=O)N[C@]4(C(=O)NS(=O)(=O)N(C)C)C[C@H]4/C=C\CCCCC[C@H](NC(=O)OC(C)(C)C)C(=O)N3C2)nc2c(-c3nc(Cc4ccccc4Cl)cs3)cccc21 [Compound 1760] | 10 to 100 | < 10 | – |
| CC(C)n1c(O[C@@H]2C[C@H]3C(=O)N[C@]4(C(=O)NS(=O)(=O)C5(C)CC5)C[C@H]4/C=C\CCCCC[C@H](NC(=O)OC(C)(C)C)C(=O)N3C2)nc2c(-c3nc(Cc4ccccc4Cl)cs3)cccc21 [Compound 1727] | < 10 | < 10 | – |
| COc1ccc2c(O[C@@H]3C[C@H]4C(=O)N[C@]5(C(=O)NS(=O)(=O)C6(C)CC6)C[C@H]5/C=C\CCCCC[C@H](Nc5cccc(C(=O)O)c5)C(=O)N4C3)cc(-c3nc(C(C)C)cs3)nc2c1C [Compound 103] | < 10 | < 10 | – |
| COc1ccc2c(O[C@@H]3C[C@H]4C(=O)N[C@]5(C(=O)NS(=O)(=O)C6CC6)C[C@H]5/C=C\CCCCN(c5ccccc5)C(=O)[C@@H]4C3)cc(-c3nc(C(C)C)cs3)nc2c1C [Compound 1601] | > 100 | < 10 | – |
| CC(C)n1c(O[C@@H]2C[C@H]3C(=O)N[C@]4(C(=O)NS(=O)(=O)C5(C)CC5)C[C@H]4/C=C\CCCCC[C@H](NC(=O)OC(C)(C)C)C(=O)N3C2)nc2c(-c3csc(N4CCOCC4)n3)cccc21 [Compound 1704] | < 10 | < 10 | – |
| CCC(C)n1c(O[C@@H]2C[C@H]3C(=O)N[C@]4(C(=O)NS(=O)(=O)N(C)C)C[C@H]4/C=C\CCCCC[C@H](NC(=O)OC(C)(C)C)C(=O)N3C2)nc2ccccc21 (stereo partly drawn) [Compound 1224] | < 10 | < 10 | – |
| CC(C)n1c(O[C@@H]2C[C@H]3C(=O)N[C@]4(C(=O)NS(=O)(=O)N(C)C)C[C@H]4/C=C\CCCCC[C@H](NC(=O)OC(C)(C)C)C(=O)N3C2)nc2c(C(=O)NCCc3ccccc3)cccc21 [Compound 284] | – | < 10 | < 10 |
| COc1ccc2c(O[C@@H]3C[C@H]4C(=O)N[C@]5(C(=O)NS(=O)(=O)C6(C)CC6)C[C@H]5/C=C\CCCCC[C@H](Nc5cccc(C(=O)N6CCOCC6Cc6ccccc6)c5)C(=O)N4C3)cc(-c3nc(C(C)C)cs3)nc2c1C (stereo partly drawn) [Compound 122] | 10 to 100 | < 10 | – |
